Reference: US10092622B2 (M[…] University Research and Technology Corporation, priority 2009, dated 2018)
Entries after “also recorded” stand apart in the source; their conditions may differ. Read-outs that look alike come from different tables or passages of the source. Numbered stars: 1 amine (or outer) side, 2 acyl side, 3 side chain; on linkers, the order of the positions; unused ones are H or OH. Bridge positions count the residues as written; N and C are the ends. Square brackets hold non-standard residues; d marks the D form. Peptide text beside a SMILES is read from it. * marks the point of attachment. hTyr(3S-OH,4S-OH,3'-OSO3H) = N[C@H](C(=O)O)[C@H](O)[C@@H](O)c1ccc(O)c(OS(=O)(=O)O)c1; Orn(4R-OH,5R-OH) = O=C([C@H](C[C@@H](O)[C@@H](O)N[*:3])N[*:1])[*:2]; Pro(3S-OH,4S-Me) = C[C@H]1CN[C@H](C(=O)O)[C@H]1O; X1 = CCCCCOc1ccc(-c2cc(-c3ccc(C(=O)*)cc3)no2)cc1; Gln(3R-OH) = NC(=O)C[C@@H](O)[C@H](N)C(=O)O; Hyp = O=C(O)[C@@H]1C[C@@H](O)CN1

Experiments:
[1] = system: A. fumigatus; details: cited from earlier work
[2] = system: Geotrichum candidum; test: Light microscopy of arthrospores; assay type: cell-based; details: G. candidum; 4 μg/mL for 48 hours; versus untreated
Experimental: (§1) Microscopy. […] For each of the fungi, the hyphae or arthrospores with an observed MIC50 at 48 hours growing next to the MIC well were used for preparation of light microscopy and transmission electron microscopy (TEM) slides. For light microscopy, lactophenol cotton blue solution (Sigma) was used as a positive stain and mounting medium for the slide. For TEM, the G. candidum samples were fixed at 4° C. with 2.5% glutaraldehyde in 0.1 M phosphate buffer (pH 7.2). After being rinsed with the buffer, specimens were post-fixed with 2% osmium tetroxide in the phosphate buffer. The specimens washed with the phosphate butler were dehydrated in graded ethanol serials (50-100%), and then embedded in Spurr's resin. Thin sections generated with a Reichert-Jung Ultracut E Ultramicrotome (60-90 nm) were double stained with uranyl acetate and lead citrate as described previously. The grids were observed under a transmission electron microscope Jeol JEM-100CX11 (Joel Ltd., Tokyo, Japan). Images were taken at magnifications between 5,000 and 8,000.

[3] = system: Geotrichum candidum; test: Transmission electron microscopy of arthrospores; assay type: cell-based; details: G. candidum; subinhibitory 4 μg/mL for 48 hours; TEM; versus untreated
Experimental: as §1

[4] = system: Macrophomina phaseolina 61; test: Antifungal susceptibility testing, agar micro-dilution; assay type: cell-based; details: 48 hours
Source text: (§2) Microbial organisms. Fungal strains were obtained from collections at Mississippi State University's Veterinary Medical Research and Diagnostic Laboratory System and Entomology and Plant Pathology Department or were purchased from the American Type Culture Collection (Manassas, Va.). Fungal isolates used in this study were Alternaria alternata, Aspergillus fumigatus, Aspergillus niger; Fusarium oxysporum f. sp. lycopersici ATCC9848, Geotrichum candidum F-260, Macrophomina phaseolina 61, Microsporum gypseum, Penicillium sp., Rhizoctonia solani MSCOT-I, and Trichophyton mentagrophytes. In addition, two Pythium species were tested: Pythium spinosum 472-04 and Pythium ultimum 671-04.
(§3) Antifungal susceptibility testing. Minimum inhibitory concentrations were determined by agar micro-dilution testing. […] One (1) mL of Sabouraud dextrose agar Difco™ (BD Diagnostics, Franklin Lakes, N.J.) was added to each well. Once the agar solidified, the plates were stored inverted at 4° C. until used. Fungal cultures were grown on 100×15 mm Sabouraud dextrose agar plates (Thermo Fisher Scientific Remel Products, Lenexa, Kans.) at 22° C. for 7 days. A circular punch, containing a 1 cm in diameter plug of the fungi from the agar plate, was made from an area of the plate having a confluent growth of the fungi. The plug was place in 3 mL of PBS and ground with approximately 30 strokes of a Ten-brock homogenizer. Five (5) μL of the supernatant was placed in the center of each well and allowed to dry before incubating the microtiter plates at 22° C. Minimum inhibitory concentrations were measured at 48 hours for each species, except for Trichophyton mentagrophytes, which was measured at 72 hours. MICS were determined as the lowest concentration that inhibited visible fungal growth.

[5] = system: Fusarium oxysporum f. sp. lycopersici ATCC9848; test: as above; assay type: cell-based; details: 48 hours
Source text: as §2, §3

[6] = system: Aspergillus niger; test: as above; assay type: cell-based; details: A. niger; 48 hours
Source text: as §2, §3

[7] = system: Trichophyton mentagrophytes; test: as above; assay type: cell-based; details: 72 hours
Source text: as §2, §3

[8] = system: Pythium spinosum 472-04; test: as above; assay type: cell-based; details: P. spinosum; 48 hours
Source text: as §2, §3

[9] = system: Geotrichum candidum F-260; test: as above; assay type: cell-based; details: G. candidum; 48 hours
Source text: as §2, §3

[10] = system: Microsporum gypseum; test: as above; assay type: cell-based; details: 48 hours
Source text: as §2, §3

[11] = system: Penicillium sp.; test: as above; assay type: cell-based; details: 48 hours
Source text: as §2, §3

[12] = system: Rhizoctonia solani MSCOT-I; test: as above; assay type: cell-based; details: R. solani
Source text: as §2, §3

[13] = system: Alternaria alternata; test: as above; assay type: cell-based; details: 48 hours
Source text: as §2, §3

[14] = system: Pythium ultimum 671-04; test: as above; assay type: cell-based; details: P. ultimum; 48 hours
Source text: as §2, §3

[15] = system: Aspergillus fumigatus; test: as above; assay type: cell-based; details: A. fumigatus; 48 hours
Source text: as §2, §3

[16] = system: Rhizoctonia solani; test: Light microscopy of hyphae grown at sub-inhibitory concentration; assay type: cell-based; details: R. solani; subinhibitory concentration 0.5 μg/mL; versus control
Experimental: as §1

## CCCCCOc1ccc(-c2cc(-c3ccc(C(=O)N[C@H]4C[C@@H](O)[C@@H](O)NC(=O)[C@@H]5[C@@H](O)[C@@H](C)CN5C(=O)[C@H]([C@H](O)CC(N)=O)NC(=O)[C@H]([C@H](O)[C@@H](O)c5ccc(O)c(OS(=O)(=O)O)c5)NC(=O)[C@@H]5C[C@@H](O)CN5C(=O)[C@H]([C@@H](C)O)NC4=O)cc3)no2)cc1 [micafungin] (X1-[Orn(4R-OH,5R-OH)]T[Hyp][hTyr(3S-OH,4S-OH,3'-OSO3H)][Gln(3R-OH)][Pro(3S-OH,4S-Me)]; lactam 1-C)
[1]; inhibitory concentrations
  hyphal morphology: hyphal burst
[1]; sub-inhibitory concentrations
  hyphal morphology: undulated membranes and deformed hyphae tips

## occidiofungin
[2]
  arthrospore/cell morphology: significant swelling of the cells; also recorded: amorphous shapes due to cellular swelling
[3]
  cell wall thickness: drastically reduced; also recorded: dramatic decrease in cell wall thickness
[4]
  MIC: 2 µg/mL
[5]
  MIC: > 32 µg/mL
  concentration with significant growth inhibition: 16 µg/mL
[6]
  MIC: 4 µg/mL
[7]
  MIC: 4 µg/mL
[8]
  MIC: 1 µg/mL
[9]
  MIC: 8 µg/mL
  concentration with remarkable growth inhibition (MIC50): 4 µg/mL
[10]
  MIC: 4 µg/mL
[11]
  MIC: 32 µg/mL
[12]; 0.5 μg/mL occidiofungin
  reduction in growth: > 50%
[12]; 48 hours
  concentration with significant growth inhibition (MIC50, >50% growth inhibition): 0.5 µg/mL
[13]
  MIC: 8 µg/mL
[14]
  MIC: 2 µg/mL
[15]
  MIC: 8 µg/mL
[16]
  hyphal morphology: significant hyphal morphological changes
